Measurements as given in US20230278972A1, “SUBSTITUTED HALOALKYL SULFONANILIDE HERBICIDES” (FMC Corporation, priority 2020, published 2023).

What was measured:
Format in all cases: in vivo
[1] = test system: Pigweed, Palmer (palmer amaranth, palmer pigweed, Amaranthus palmeri); assay: Test A1 postemergence, Pigweed, Palmer; conditions: Postemergence
How it was run: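 Both timings started from seed in a loam-sand blend. Preemergence pots got a directed soil application immediately; postemergence pots were sprayed when seedlings had one or two leaves and stood 2–10 cm. Each compound was prepared in a non-phytotoxic solvent plus surfactant.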

[2] = test system: Foxtail, Giant (giant foxtail, Setaria faberi); assay: Test A1 postemergence, Foxtail, Giant; conditions: Postemergence
How it was run: (§1)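 Plants were grown in a loam soil/sand blend, with test chemicals formulated in a non-phytotoxic solvent mixture containing surfactant. Preemergence treatment (corn) was a directed soil spray at planting. Postemergence treatment was applied to plants 2 to 10 cm tall at the one- to two-leaf stage.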

[3] = test system: Foxtail, Giant (giant foxtail, Setaria faberi); assay: Test A1 preemergence, Foxtail, Giant
How it was run: (§2)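 Herbicidal response was scored on plants treated either preemergence, by directed spray onto soil of a loam–sand blend after sowing, or postemergence on potted plants at the one- to two-leaf stage, 2–10 cm high. Test chemicals were carried in a non-phytotoxic solvent mix with surfactant.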

[4] = test system: kochia (Bassia scoparia); assay: Test A1 postemergence, kochia; conditions: Postemergence
How it was run: as §1

[5] = test system: ragweed (common ragweed, Ambrosia artemisiifolia); assay: Test A1 preemergence, ragweed
How it was run: as §2

[6] = test system: Oat, Wild (wild oat, Avena fatua); assay: Test A1 preemergence, Oat, Wild
How it was run: as §2

[7] = test system: rice (Oryza sativa); assay: Test B1 flooded paddy test, rice; conditions: 250 g ai/ha, Flood, applied to paddy water, 2-leaf stage, visually evaluated after 10 to 14 days
Excerpt: (§3) A dash (-) response means no test result.

[8] = test system: barnyardgrass (Echinochloa crus-galli); assay: Test B1 flooded paddy test, barnyardgrass; conditions: 250 g ai/ha, Flood, applied to paddy water, 2-leaf stage, visually evaluated after 10 to 14 days
Excerpt: as §3

[9] = test system: wheat (Triticum aestivum); assay: Test A1 postemergence, wheat; conditions: Postemergence
How it was run: as §1

[10] = 31 g ai/ha, 0 to 100 scale (0 no effect, 100 complete control), 10 days
[11] = 31 g ai/ha, 0 to 100 scale (0 no effect, 100 complete control)
[12] = 125 g ai/ha, 0 to 100 scale, 0 no effect, 100 complete control

## Cc1c(C(=O)N2C[C@@H](C)O[C@@H](C)C2)cc(N(COC(=O)C(C)(C)C)S(=O)(=O)C(F)(F)F)c(C)c1C [Compound 331]
[1]; [10]
  Plant response rating, Pigweed, Palmer: 0
[1]; 125 g ai/ha, 0 to 100 scale
  Plant response rating, Pigweed, Palmer: 20
[2]; [10]
  Plant response rating, Foxtail, Giant: 20
[2]; 125 g ai/ha, 0 to 100 scale
  Plant response rating, Foxtail, Giant: 80
[3]; [11]
  Plant response rating, Foxtail, Giant: 0
[3]; [12]
  Plant response rating, Foxtail, Giant: 70
[4]; [10]
  Plant response rating, Kochia: 0
[4]; 125 g ai/ha, 0 to 100 scale
  Plant response rating, Kochia: 10
[5]; [11]
  Plant response rating, Ragweed: 0
[5]; [12]
  Plant response rating, Ragweed: 90
[6]; [11]
  Plant response rating, Oat, Wild: 0
[6]; [12]
  Plant response rating, Oat, Wild: 0
[7]
  Plant response rating, Rice (0 to 100 scale, 0 is no effect, 100 is complete control): 0
[8]
  Plant response rating, Barnyardgrass (0 to 100 scale, 0 is no effect, 100 is complete control): 98
[9]; [10]
  Plant response rating, Wheat: 0
[9]; 125 g ai/ha, 0 to 100 scale
  Plant response rating, Wheat: 50

## CCOC(=O)N(c1cc(C(=O)N2C[C@@H](C)O[C@@H](C)C2)c(C)c(C)c1C)S(=O)(=O)C(F)(F)F [Compound 332]
[1]; [10]
  Plant response rating, Pigweed, Palmer: 10
[1]; 125 g ai/ha, 0 to 100 scale
  Plant response rating, Pigweed, Palmer: 30
[2]; [10]
  Plant response rating, Foxtail, Giant: 30
[2]; 125 g ai/ha, 0 to 100 scale
  Plant response rating, Foxtail, Giant: 90
[3]; [11]
  Plant response rating, Foxtail, Giant: 100
[3]; [12]
  Plant response rating, Foxtail, Giant: 100
[4]; [10]
  Plant response rating, Kochia: 0
[4]; 125 g ai/ha, 0 to 100 scale
  Plant response rating, Kochia: 10
[5]; [11]
  Plant response rating, Ragweed: 50
[5]; [12]
  Plant response rating, Ragweed: 80
[6]; [11]
  Plant response rating, Oat, Wild: 0
[6]; [12]
  Plant response rating, Oat, Wild: 20
[7]
  Plant response rating, Rice (0 to 100 scale, 0 is no effect, 100 is complete control): 0
[8]
  Plant response rating, Barnyardgrass (0 to 100 scale, 0 is no effect, 100 is complete control): 98
[9]; [10]
  Plant response rating, Wheat: 10
[9]; 125 g ai/ha, 0 to 100 scale
  Plant response rating, Wheat: 50

## Cc1c(C(=O)N2CCCCC2)cc(NS(=O)(=O)C(F)(F)F)c(Cl)c1F [Compound 333]
[1]; [10]
  Plant response rating, Pigweed, Palmer: 40
[1]; 125 g ai/ha, 0 to 100 scale
  Plant response rating, Pigweed, Palmer: 60
[2]; [10]
  Plant response rating, Foxtail, Giant: 10
[2]; 125 g ai/ha, 0 to 100 scale
  Plant response rating, Foxtail, Giant: 30
[3]; [11]
  Plant response rating, Foxtail, Giant: 30
[3]; [12]
  Plant response rating, Foxtail, Giant: 100
[4]; [10]
  Plant response rating, Kochia: 30
[4]; 125 g ai/ha, 0 to 100 scale
  Plant response rating, Kochia: 70
[5]; [11]
  Plant response rating, Ragweed: 0
[5]; [12]
  Plant response rating, Ragweed: 70
[6]; [11]
  Plant response rating, Oat, Wild: 20
[6]; [12]
  Plant response rating, Oat, Wild: 40
[7]
  Plant response rating, Rice (0 to 100 scale, 0 is no effect, 100 is complete control): 0
[8]
  Plant response rating, Barnyardgrass (0 to 100 scale, 0 is no effect, 100 is complete control): 0
[9]; [10]
  Plant response rating, Wheat: 0
[9]; 125 g ai/ha, 0 to 100 scale
  Plant response rating, Wheat: 30

## COC1CCCN(C(=O)c2cc(NS(=O)(=O)C(F)(F)F)c(Cl)c(F)c2C)C1 (centres unmarked) [Compound 334]
[1]; [10]
  Plant response rating, Pigweed, Palmer: 10
[1]; 125 g ai/ha, 0 to 100 scale
  Plant response rating, Pigweed, Palmer: 50
[2]; [10]
  Plant response rating, Foxtail, Giant: 0
[2]; 125 g ai/ha, 0 to 100 scale
  Plant response rating, Foxtail, Giant: 0
[3]; [11]
  Plant response rating, Foxtail, Giant: 40
[3]; [12]
  Plant response rating, Foxtail, Giant: 70
[4]; [10]
  Plant response rating, Kochia: 10
[4]; 125 g ai/ha, 0 to 100 scale
  Plant response rating, Kochia: 40
[5]; [11]
  Plant response rating, Ragweed: 0
[5]; [12]
  Plant response rating, Ragweed: 50
[6]; [11]
  Plant response rating, Oat, Wild: 10
[6]; [12]
  Plant response rating, Oat, Wild: 20
[7]
  Plant response rating, Rice (0 to 100 scale, 0 is no effect, 100 is complete control): 10
[8]
  Plant response rating, Barnyardgrass (0 to 100 scale, 0 is no effect, 100 is complete control): 15
[9]; [10]
  Plant response rating, Wheat: 0
[9]; 125 g ai/ha, 0 to 100 scale
  Plant response rating, Wheat: 0

## Cc1c(C2=NO[C@@H]3CCC[C@H]23)cc(N(COC(=O)C(C)(C)C)S(=O)(=O)C(F)(F)F)c(C)c1C [Compound 336, [[(Trifluoromethyl)sulfonyl][2,3,4-trimethyl-5-[(3aR,6aR)-3a,5,6,6a-tetrahydro-4H-cyclopent[d]isoxazol-3-yl]phenyl]amino]methyl 2,2-dimethylpropanoate]
[1]; [10]
  Plant response rating, Pigweed, Palmer: 20
[1]; 125 g ai/ha, 0 to 100 scale
  Plant response rating, Pigweed, Palmer: 50
[2]; [10]
  Plant response rating, Foxtail, Giant: 0
[2]; 125 g ai/ha, 0 to 100 scale
  Plant response rating, Foxtail, Giant: 40
[3]; [11]
  Plant response rating, Foxtail, Giant: 20
[3]; [12]
  Plant response rating, Foxtail, Giant: 80
[4]; [10]
  Plant response rating, Kochia: 70
[4]; 125 g ai/ha, 0 to 100 scale
  Plant response rating, Kochia: 80
[5]; [11]
  Plant response rating, Ragweed: 0
[5]; [12]
  Plant response rating, Ragweed: 50
[6]; [11]
  Plant response rating, Oat, Wild: 0
[6]; [12]
  Plant response rating, Oat, Wild: 20
[7]
  Plant response rating, Rice (0 to 100 scale, 0 is no effect, 100 is complete control): 45
[8]
  Plant response rating, Barnyardgrass (0 to 100 scale, 0 is no effect, 100 is complete control): 95
[9]; [10]
  Plant response rating, Wheat: 0
[9]; 125 g ai/ha, 0 to 100 scale
  Plant response rating, Wheat: 0
